Reference: ChEMBL document CHEMBL1147306, “Studies on inhibitors of skin tumor promotion, VI. Inhibitory effects of quinones on Epstein-Barr virus activation” (J Nat Prod, 1989)
The source made the active and inactive calls. The rule behind the calls is not given here.

Assays:
[1] = Cytotoxicity against human Raji cells assessed as cell viability at 500 molar ratio; type: cell-based; details: read-out: Activity
[2] = Cytotoxicity against human Raji cells assessed as cell viability at 1000 molar ratio; type: cell-based; details: read-out: Activity
[3] = species: Mus musculus; test: Displacement of [3H]TPA from TPA receptor in ICR mouse dorsal epidermis
[4] = Cytotoxicity against human Raji cells assessed as cell viability at 100 molar ratio; type: cell-based; details: read-out: Activity
[5] = test system: Raji; test: Inhibition of TPA-induced EBV-early antigen activation in human Raji cells at 500 molar ratio after 48 hrs by indirect immunofluorescence technique relative to TPA; type: cell-based; details: human gammaherpesvirus 4
[6] = Cytotoxicity against human Raji cells assessed as cell viability at 10 molar ratio; type: cell-based; details: read-out: Activity
[7] = test system: Raji; test: Inhibition of TPA-induced EBV-early antigen activation in human Raji cells at 100 molar ratio after 48 hrs by indirect immunofluorescence technique relative to TPA; type: cell-based; details: human gammaherpesvirus 4
[8] = test system: Raji; test: Inhibition of TPA-induced EBV-early antigen activation in human Raji cells at 10 molar ratio after 48 hrs by indirect immunofluorescence technique relative to TPA; type: cell-based; details: human gammaherpesvirus 4

SMILES	viability at 500 molar ratio [1] [%]	viability at 1000 molar ratio [2] [%]	Activity [3]	viability at 100 molar ratio [4] [%]	EBV-EA activation % of TPA control [5] [%]	viability at 10 molar ratio [6] [%]	EBV-EA activation % of TPA control [7] [%]	EBV-EA activation % of TPA control [8] [%]
Cc1ccnc2c1C(=O)c1c(O)ccc(O)c1C2=O	60	60	inactive	> 80	23.1	> 80	52.1	88.6
Cc1ccc2c(n1)C(=O)c1c(O)ccc(O)c1C2=O	60	10	inactive	> 80	13.5	> 80	43.8	86
CC1=CC(=O)c2ccccc2C1=O [MENADIONE]	0	0		70	0	> 80	65.7	89.4
Cc1cnc2c(c1)C(=O)c1ccccc1C2=O	> 80	70		> 80	48.7	> 80	76.5	100
O=C1c2ccc(O)cc2C(=O)c2ccc(O)cc21 [ANTHRAFLAVICACID]	> 80	> 80		> 80	78.6	> 80	89.9	100
COc1cccc2c1C(=O)c1c(ccc3c1OCO3)C2=O	> 80	60		> 80	57.6	> 80	82.5	100
CN(C)C1=CC(=O)c2c(O)cccc2C1=O	> 80	> 80		> 80	60.5	> 80	61.5	89.2
O=C(O)c1cc(O)c2c(c1)[C@@H]([C@H]1c3cc(C(=O)O)cc(O)c3C(=O)c3c(O[C@@H]4O[C@H](CO)[C@@H](O)[C@H](O)[C@H]4O)cccc31)c1cccc(O[C@@H]3O[C@H](CO)[C@@H](O)[C@H](O)[C@H]3O)c1C2=O [SENNOSIDE B]	> 80	70		> 80	100	> 80	100	100
CN(C)C1=CC(=O)c2cc(O)ccc2C1=O	> 80	60		> 80	68.5	> 80	100	100
Cc1ccnc2c1C(=O)c1cccc(O)c1C2=O	60	40		> 80	15.4	> 80	67.4	89.1
Cc1ccc2c(n1)C(=O)c1c(O)cccc1C2=O	50	10		> 80	17.3	> 80	56.8	92.4
O=C1C=CC(=O)c2cc(O)ccc21	60	10		60	0	> 80	67.2	92.3
Cc1cc(O)c2c(c1)C(=O)c1cc(O)cc(O)c1C2=O [EMODIN]	> 80	> 80		> 80	54.2	> 80	91.1	100
O=C1C=CC(=O)c2ccccc21 [NAPHTHOQUINONE]	50	20		50	0	> 80	37.5	100
COCc1c(O)cc2c(c1O)C(=O)c1cccc(O)c1C2=O	> 80	> 80		> 80	21	> 80	51.8	100
CC1C=CNC2=C1C(=O)c1cc(O)ccc1C2=O (centres undefined)	> 80	70		> 80	62.1	> 80	66.7	100
O=C1C=CC(=O)c2c(O)ccc(O)c21 [NAPHTHAZALIN]	40	20		50	0	> 80	0	68.9
CCCCCCCCCCCCCC(=O)O[C@@H]1[C@@H](C)[C@@]2(O)[C@@H](C=C(CO)C[C@]3(O)C(=O)C(C)=C[C@@H]23)[C@@H]2C(C)(C)[C@]12OC(C)=O			Active					
O=C1c2cccc(O)c2C(=O)c2c(O)cccc21 [DANTHRON]	> 80	> 80		> 80	61.9	> 80	71.2	94.2
O=C1c2ccccc2C(=O)c2sccc21 [THIOPHENONAPHTHOQUINONE]	0	0		70	0	> 80	52.8	81.4
O=C1c2ccc(O)c(O)c2C(=O)c2c(O)ccc(O)c21 [QUINALIZARIN]	60	40		> 80	0	> 80	88.4	100
COc1c(CO)c(O)cc2c1C(=O)c1ccccc1C2=O [DAMNACANTHOL]	> 80	70		> 80	91.2	> 80	100	100
CC1(c2cc3c(o2)C(=O)c2ccccc2C3=O)OCCO1	10	0		10	0	60	0	32.4
Cc1ccnc2c1C(=O)c1ccccc1C2=O [CLEISTOPHOLINE]	> 80	70		> 80	48.7	> 80	77.5	100
